Test results reported in paper PMC12670426 (Journal of Medicinal Chemistry, 2025).
Read-outs that look alike come from different tables or passages of the source.

Key:
[1] = target: T1, human galectin-1 (Gal-1, full length) (Homo sapiens, UniProt P09382); test: Competitive fluorescence polarization assay, Gal-1; assay type: binding
T1 construct: Gal-1 is a prototype galectin consisting of a single CRD and was used in full length; 6xHis tag with TEV protease site (N, cleaved yes); made in house; host or cells: BL21 Escherichia coli (pET-15b)
Protocol: (§1) Our investigation of the structure–activity relationship of N-aryl-N-lactosylamides started with an initial screening of substituted acetanilides (Table ). These compounds can be readily synthesized from a wide range of commercially available substituted anilines. Affinity was evaluated using a fluorescence polarization assay, which enables reliable determination of dissociation constants (K d) between small molecules and galectins. All inhibitors in this series were tested against the two most common human galectins: Gal-1 and Gal-3. Gal-1 is a prototype galectin consisting of a single CRD and was used in full length. In the case of Gal-3, which consists of the C-terminal CRD and N-terminal unfolded region, only the C-terminal domain was used (Gal-3C). Affinities were compared to methyl β-lactoside (β-LacOMe) as a baseline.
(§2) Fluorescence polarization experiments for determining inhibitor affinities were performed using the same instrumentation and settings as described for the direct binding experiments. […] The galectin–probe mixture was subsequently added using a Certus Flex liquid handler (Fritz Gyger AG, Switzerland) to reach a final volume of 5 μL. Anisotropy was measured after 30–60 min incubation at 25 °C. Inhibitor dissociation constants (K d) were calculated using Wang’s exact cubic model for competitive binding implemented in the BindCurve package. Protein and probe concentrations used in these competitive experiments are provided in the Supporting Information.
(§3) Competitive binding was modeled by Wang’s exact cubic model,3 which is written as […]
(§4) r = rmin + (rmax − rmin) 3 (6) […]
(§5) where r, rmin and rmax have the same meaning as in Equation 1. The coefficients a, b, and c are […]
(§6) a = Kd∗ + Kd + [L∗]T + [L]T − [R]T (7) b = Kd∗([L]T − [R]T) + Kd([L∗]T − [R]T) + Kd∗ Kd (8) […]
(§7) where Kd∗ is the dissociation constant of the probe, Kd is the dissociation constant of the […]
(§8) the unlabeled ligand, and [R]T is the total concentration of the receptor. The angle θ is defined […]
(§9) In the competitive binding experiments, the values of [L∗]T, [R]T and Kd∗ are known and [L]T is titrated. The values of minimal and maximal anisotropy rmin and rmax were fixed during fitting at the values of the minimal and maximal asymptotes obtained from the direct binding experiments. The value of Kd was calculated as the only unfixed parameter in the model.
(§10) Experimental constants used for the competitive fluorescence polarization experiments are […]
(§11) Table S2. Experimental constants used for competitive fluorescence polarization experiments. […]

[2] = target: T2, human galectin-3C (Gal-3C, C-terminal CRD of galectin-3) (Homo sapiens, UniProt P17931); test: Competitive fluorescence polarization assay, Gal-3C; assay type: binding
T2 construct: only the C-terminal domain was used (Gal-3C); 6xHis tag with TEV protease site (N, cleaved yes); made in house; host or cells: BL21 Escherichia coli (pET-15b)
Protocol: as §1, §2, §3, §4, §5, §6, §7, §8, §9, §10, §11

[3] = CSV supplement, unrounded mean, read-out: Gal1_IC50_mean_uM
[4] = CSV supplement, unrounded mean, read-out: Gal1_Kd_mean_uM
[5] = competitive fluorescence polarization, mean ± SD, read-out: Kd Gal-1
[6] = four-parameter logistic model, mean ± SD, read-out: IC50 Gal-1
[7] = CSV supplement, unrounded mean, read-out: Gal3C_IC50_mean_uM
[8] = CSV supplement, unrounded mean, read-out: Gal3C_Kd_mean_uM
[9] = competitive fluorescence polarization, mean ± SD, read-out: Kd Gal-3C
[10] = four-parameter logistic model, mean ± SD, read-out: IC50 Gal-3C

T2 sequence (P17931 118-248 limits assumed): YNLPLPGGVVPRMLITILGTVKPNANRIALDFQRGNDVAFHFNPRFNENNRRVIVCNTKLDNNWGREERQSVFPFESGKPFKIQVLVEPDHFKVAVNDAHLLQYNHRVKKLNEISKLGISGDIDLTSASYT
T1 sequence (P09382 2-135): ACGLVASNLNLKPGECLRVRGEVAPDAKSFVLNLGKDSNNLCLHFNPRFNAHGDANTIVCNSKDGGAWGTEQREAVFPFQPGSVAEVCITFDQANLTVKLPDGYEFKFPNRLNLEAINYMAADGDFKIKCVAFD

IC50 [1, 3] [µM]	Kd [1, 4] [µM]	improvement in affinity toward Gal-1 compared to β-LacOMe ([1]; compared to β-LacOMe)	Kd [1, 5] [µM]	IC50 [1, 6] [µM]	IC50 [2, 7] [µM]	Kd [2, 8] [µM]	improvement in affinity toward Gal-3C compared to β-LacOMe ([2]; compared to β-LacOMe)	Kd [2, 9] [µM]	IC50 [2, 10] [µM]	SMILES
908	586	approximately 2 fold	590 ± 80	910 ± 20	287	106	approximately 2 fold	110 ± 30	290 ± 1	CC(=O)N(c1ccccc1)[C@@H]1O[C@H](CO)[C@@H](O[C@@H]2O[C@H](CO)[C@H](O)[C@H](O)[C@H]2O)[C@H](O)[C@H]1O [Compound 3a, N-[4-O-(β-D-Galactopyranosyl)-β-D-glucopyranosyl]-N-phenylacetamide]
899	571	–	570 ± 60	900 ± 100	191	68.7	–	69 ± 20	190 ± 9	CC(=O)N(c1cccc(-c2cn(C)nn2)c1)[C@@H]1O[C@H](CO)[C@@H](O[C@@H]2O[C@H](CO)[C@H](O)[C@H](O)[C@H]2O)[C@H](O)[C@H]1O [Compound 3aa, N-[4-O-(β-D-Galactopyranosyl)-β-D-glucopyranosyl]-N-[3-(1-methyl-1H-1,2,3-triazol-4-yl)phenyl]acetamide]
957	651	–	650 ± 100	960 ± 40	130	50	–	50 ± 9	130 ± 3	CC(=O)N(c1cc(Cl)cc(C(=O)O)c1)[C@@H]1O[C@H](CO)[C@@H](O[C@@H]2O[C@H](CO)[C@H](O)[C@H](O)[C@H]2O)[C@H](O)[C@H]1O [Compound 3ab, N-[4-O-(β-D-Galactopyranosyl)-β-D-glucopyranosyl]-N-(3-carboxy-5-chlorophenyl)acetamide]
967	625	–	630 ± 100	970 ± 30	160	60.2	–	60 ± 10	160 ± 20	CC(=O)N(c1cc(Br)cc(C(=O)O)c1)[C@@H]1O[C@H](CO)[C@@H](O[C@@H]2O[C@H](CO)[C@H](O)[C@H](O)[C@H]2O)[C@H](O)[C@H]1O [Compound 3ac, N-[4-O-(β-D-Galactopyranosyl)-β-D-glucopyranosyl]-N-(3-bromo-5-carboxyphenyl)acetamide]
1030	637	–	640 ± 90	1000 ± 100	42.5	15.9	–	16 ± 2	43 ± 4	COC(=O)c1cc(N(C(C)=O)[C@@H]2O[C@H](CO)[C@@H](O[C@@H]3O[C@H](CO)[C@H](O)[C@H](O)[C@H]3O)[C@H](O)[C@H]2O)c2cc[nH]c2c1 [Compound 3ae, N-[4-O-(β-D-Galactopyranosyl)-β-D-glucopyranosyl]-N-[6-(methylcarboxy)-1H-indol-4-yl]acetamide]
919	481	–	480 ± 100	920 ± 90	404	133	–	130 ± 20	400 ± 50	CC(=O)N(c1ccc(C)cc1)[C@@H]1O[C@H](CO)[C@@H](O[C@@H]2O[C@H](CO)[C@H](O)[C@H](O)[C@H]2O)[C@H](O)[C@H]1O [Compound 3b, N-[4-O-(β-D-Galactopyranosyl)-β-D-glucopyranosyl]-N-(4-methylphenyl)acetamide]
1570	1010	–	1000 ± 70	1600 ± 300	500	182	–	180 ± 50	500 ± 30	C#Cc1cccc(N(C(C)=O)[C@@H]2O[C@H](CO)[C@@H](O[C@@H]3O[C@H](CO)[C@H](O)[C@H](O)[C@H]3O)[C@H](O)[C@H]2O)c1 [Compound 3c, N-[4-O-(β-D-Galactopyranosyl)-β-D-glucopyranosyl]-N-(3-ethynylphenyl)acetamide]
1040	560	–	560 ± 100	1000 ± 90	489	160	–	160 ± 30	490 ± 60	CC(=O)N(c1cccc(C(F)(F)F)c1)[C@@H]1O[C@H](CO)[C@@H](O[C@@H]2O[C@H](CO)[C@H](O)[C@H](O)[C@H]2O)[C@H](O)[C@H]1O [Compound 3d, N-[4-O-(β-D-Galactopyranosyl)-β-D-glucopyranosyl]-N-(3-trifluoromethylphenyl)acetamide]
595	322	–	320 ± 100	590 ± 70	275	87.1	–	87 ± 10	270 ± 10	CC(=O)N(c1ccc(F)cc1)[C@@H]1O[C@H](CO)[C@@H](O[C@@H]2O[C@H](CO)[C@H](O)[C@H](O)[C@H]2O)[C@H](O)[C@H]1O [Compound 3e, N-[4-O-(β-D-Galactopyranosyl)-β-D-glucopyranosyl]-N-(4-fluorophenyl)acetamide]
671	361	–	360 ± 20	670 ± 30	305	98.1	–	98 ± 3	300 ± 50	CC(=O)N(c1cccc(F)c1)[C@@H]1O[C@H](CO)[C@@H](O[C@@H]2O[C@H](CO)[C@H](O)[C@H](O)[C@H]2O)[C@H](O)[C@H]1O [Compound 3f, N-[4-O-(β-D-Galactopyranosyl)-β-D-glucopyranosyl]-N-(3-fluorophenyl)acetamide]
931	507	–	510 ± 30	930 ± 8	282	93.2	–	93 ± 20	280 ± 20	CC(=O)N(c1ccccc1F)[C@@H]1O[C@H](CO)[C@@H](O[C@@H]2O[C@H](CO)[C@H](O)[C@H](O)[C@H]2O)[C@H](O)[C@H]1O [Compound 3g, N-[4-O-(β-D-Galactopyranosyl)-β-D-glucopyranosyl]-N-(2-fluorophenyl)acetamide]
597	399	–	400 ± 20	600 ± 20	284	127	–	130 ± 80	280 ± 100	CC(=O)N(c1ccc(F)c(F)c1)[C@@H]1O[C@H](CO)[C@@H](O[C@@H]2O[C@H](CO)[C@H](O)[C@H](O)[C@H]2O)[C@H](O)[C@H]1O [Compound 3h, N-[4-O-(β-D-Galactopyranosyl)-β-D-glucopyranosyl]-N-(3,4-difluorophenyl)acetamide]
565	314	–	310 ± 90	570 ± 10	328	111	–	110 ± 8	330 ± 5	CC(=O)N(c1cc(F)c(F)c(F)c1)[C@@H]1O[C@H](CO)[C@@H](O[C@@H]2O[C@H](CO)[C@H](O)[C@H](O)[C@H]2O)[C@H](O)[C@H]1O [Compound 3i, N-[4-O-(β-D-Galactopyranosyl)-β-D-glucopyranosyl]-N-(3,4,5-trifluorophenyl)acetamide]
654	363	–	360 ± 30	650 ± 30	363	113	–	110 ± 10	360 ± 10	CC(=O)N(c1ccc(Cl)cc1)[C@@H]1O[C@H](CO)[C@@H](O[C@@H]2O[C@H](CO)[C@H](O)[C@H](O)[C@H]2O)[C@H](O)[C@H]1O [Compound 3j, N-[4-O-(β-D-Galactopyranosyl)-β-D-glucopyranosyl]-N-(4-chlorophenyl)acetamide]
659	376	–	380 ± 60	660 ± 8	346	112	–	110 ± 20	350 ± 40	CC(=O)N(c1ccc(Cl)c(Cl)c1)[C@@H]1O[C@H](CO)[C@@H](O[C@@H]2O[C@H](CO)[C@H](O)[C@H](O)[C@H]2O)[C@H](O)[C@H]1O [Compound 3k, N-[4-O-(β-D-Galactopyranosyl)-β-D-glucopyranosyl]-N-(3,4-dichlorophenyl)acetamide]
